In publication PMC9942839, “Structural remodeling of AAA+ ATPase p97 by adaptor protein ASPL facilitates posttranslational methylation by METTL21D” (Proceedings of the National Academy of Sciences of the …, 2023):
Changes are numbered by the printed parent chain.

Tests used:
[1] = biological target: T1, AtMETTL21D (Arabidopsis thaliana, UniProt F4HUD6, C19S/L26V, form not given); test: methylation assay, anti-Kme3 western blot; type: biochemical; conditions: co-substrate AtCDC48; weak gain of trimethylation; 20 mM HEPES pH 8.0, 200 mM NaCl, RT
T1 construct: gene At1g08125; E. coli; His tag cleaved by TEV
T1 sequence (F4HUD6 15-239 C19S/L26V): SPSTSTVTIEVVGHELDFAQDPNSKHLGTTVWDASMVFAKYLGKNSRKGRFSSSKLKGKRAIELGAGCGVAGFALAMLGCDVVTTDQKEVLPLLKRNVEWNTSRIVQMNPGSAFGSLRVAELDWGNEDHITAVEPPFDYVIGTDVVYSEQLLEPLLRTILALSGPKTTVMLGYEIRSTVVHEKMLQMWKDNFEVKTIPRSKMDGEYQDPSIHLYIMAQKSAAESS

[2] = biological target: T2, AtMETTL21D (Arabidopsis thaliana, UniProt F4HUD6); test: methylation assay, anti-monomethyl-lysine western blot; type: biochemical; conditions: automethylation and monomethylation of AtCDC48 in the presence of PUX1; pH 8.0, RT
T2 construct: gene At1g08125; E. coli; His tag cleaved by TEV
T2 sequence (F4HUD6 15-239): T1 sequence (F4HUD6 15-239 C19S/L26V) with S5C, V12L

[3] = biological target: T3, METTL21D in p97-ND1:ASPL-CΔ:METTL21D (Homo sapiens, UniProt Q9H867); test: X-ray crystal structure, […] Å; type: binding; conditions: METTL21D active site; crystallized with SAM, product of p97 Lys315 trimethylation; contacts Asp96, Trp126
T3 construct: gene VCPKMT; 1:1:1 heterotrimer ~110 kDa; METTL21D His tag cleaved by TEV; p97-ND1 fragment lacking D2 domain, Lys315 trimethylated; ASPL-CΔ residues 313-500; E. coli; with Transitional endoplasmic reticulum ATPase; Tether containing UBX domain for GLUT4
T3 sequence (Q9H867 2-229 limits assumed, stated change not applied): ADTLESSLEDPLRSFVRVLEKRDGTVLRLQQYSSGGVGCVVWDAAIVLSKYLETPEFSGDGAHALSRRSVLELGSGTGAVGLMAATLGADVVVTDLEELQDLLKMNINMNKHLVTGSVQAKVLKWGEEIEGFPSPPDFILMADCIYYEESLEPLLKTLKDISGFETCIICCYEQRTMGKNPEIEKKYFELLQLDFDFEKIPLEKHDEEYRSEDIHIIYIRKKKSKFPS
T3 sequence (P55072 2-480 partner limits assumed): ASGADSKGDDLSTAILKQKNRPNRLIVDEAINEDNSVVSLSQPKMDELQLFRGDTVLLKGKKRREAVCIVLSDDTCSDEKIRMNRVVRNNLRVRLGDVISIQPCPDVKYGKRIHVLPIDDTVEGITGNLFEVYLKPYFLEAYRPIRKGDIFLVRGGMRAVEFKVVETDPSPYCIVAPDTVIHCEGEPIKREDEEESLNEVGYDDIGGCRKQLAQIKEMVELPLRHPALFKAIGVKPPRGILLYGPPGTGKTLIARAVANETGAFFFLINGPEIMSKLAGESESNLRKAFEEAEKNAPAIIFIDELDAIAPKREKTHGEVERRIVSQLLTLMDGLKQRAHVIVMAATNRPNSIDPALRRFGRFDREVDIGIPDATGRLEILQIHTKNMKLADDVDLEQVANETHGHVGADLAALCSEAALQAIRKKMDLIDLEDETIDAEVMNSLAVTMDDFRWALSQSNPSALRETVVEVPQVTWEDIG
T3 sequence (Q9BZE9 313-500 partner): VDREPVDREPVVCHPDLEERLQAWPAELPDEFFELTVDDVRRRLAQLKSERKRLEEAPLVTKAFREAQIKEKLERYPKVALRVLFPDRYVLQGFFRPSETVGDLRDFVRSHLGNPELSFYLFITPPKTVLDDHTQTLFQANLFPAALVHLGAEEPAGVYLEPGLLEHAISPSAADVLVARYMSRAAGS

| SMILES | methylation assay, anti-Kme3 western blot [1] | methylation assay, anti-monomethyl-lysine western blot [2] | X-ray crystal structure, 3.0 Å [3] |
| --- | --- | --- | --- |
| C[S+](CC[C@H](N)C(=O)O)C[C@H]1O[C@@H](n2cnc3c(N)ncnc32)[C@H](O)[C@@H]1O (stereo partly drawn) [S-adenosyl-methionine] | substitution of leucine with valine in plant AtMETTL21D resulted in gain of trimethylation activity | AtMETTL21D monomethylated itself, as well as AtCDC48 in the presence of PUX1 |  |
| Nc1ncnc2c1ncn2[C@@H]1O[C@H](CSCC[C@H](N)C(=O)O)[C@@H](O)[C@H]1O [S-adenosyl-L-homocysteine] |  |  | the active site of METTL21D contains a S-adenosyl-L-homocysteine (SAH) molecule |
